In publication PMC4076210, “Discovery of Novel AKT Inhibitors with Enhanced Anti-Tumor Effects in Combination with the MEK Inhibitor” (PLoS ONE, 2014):
Where two headings read alike, the source gives them in different places.

Legend:
Assay in all cases: Kinase panel
Assay type in all cases: biochemical
[1] = molecular target: T1, IRAK1(h) (Homo sapiens, UniProt P51617)
T1 construct: purchased Millipore KinaseProfiler

[2] = molecular target: T2, ASK1(h) (Homo sapiens, UniProt Q99683)
T2 construct: purchased Millipore KinaseProfiler
T2 sequence (Q99683 1-1374): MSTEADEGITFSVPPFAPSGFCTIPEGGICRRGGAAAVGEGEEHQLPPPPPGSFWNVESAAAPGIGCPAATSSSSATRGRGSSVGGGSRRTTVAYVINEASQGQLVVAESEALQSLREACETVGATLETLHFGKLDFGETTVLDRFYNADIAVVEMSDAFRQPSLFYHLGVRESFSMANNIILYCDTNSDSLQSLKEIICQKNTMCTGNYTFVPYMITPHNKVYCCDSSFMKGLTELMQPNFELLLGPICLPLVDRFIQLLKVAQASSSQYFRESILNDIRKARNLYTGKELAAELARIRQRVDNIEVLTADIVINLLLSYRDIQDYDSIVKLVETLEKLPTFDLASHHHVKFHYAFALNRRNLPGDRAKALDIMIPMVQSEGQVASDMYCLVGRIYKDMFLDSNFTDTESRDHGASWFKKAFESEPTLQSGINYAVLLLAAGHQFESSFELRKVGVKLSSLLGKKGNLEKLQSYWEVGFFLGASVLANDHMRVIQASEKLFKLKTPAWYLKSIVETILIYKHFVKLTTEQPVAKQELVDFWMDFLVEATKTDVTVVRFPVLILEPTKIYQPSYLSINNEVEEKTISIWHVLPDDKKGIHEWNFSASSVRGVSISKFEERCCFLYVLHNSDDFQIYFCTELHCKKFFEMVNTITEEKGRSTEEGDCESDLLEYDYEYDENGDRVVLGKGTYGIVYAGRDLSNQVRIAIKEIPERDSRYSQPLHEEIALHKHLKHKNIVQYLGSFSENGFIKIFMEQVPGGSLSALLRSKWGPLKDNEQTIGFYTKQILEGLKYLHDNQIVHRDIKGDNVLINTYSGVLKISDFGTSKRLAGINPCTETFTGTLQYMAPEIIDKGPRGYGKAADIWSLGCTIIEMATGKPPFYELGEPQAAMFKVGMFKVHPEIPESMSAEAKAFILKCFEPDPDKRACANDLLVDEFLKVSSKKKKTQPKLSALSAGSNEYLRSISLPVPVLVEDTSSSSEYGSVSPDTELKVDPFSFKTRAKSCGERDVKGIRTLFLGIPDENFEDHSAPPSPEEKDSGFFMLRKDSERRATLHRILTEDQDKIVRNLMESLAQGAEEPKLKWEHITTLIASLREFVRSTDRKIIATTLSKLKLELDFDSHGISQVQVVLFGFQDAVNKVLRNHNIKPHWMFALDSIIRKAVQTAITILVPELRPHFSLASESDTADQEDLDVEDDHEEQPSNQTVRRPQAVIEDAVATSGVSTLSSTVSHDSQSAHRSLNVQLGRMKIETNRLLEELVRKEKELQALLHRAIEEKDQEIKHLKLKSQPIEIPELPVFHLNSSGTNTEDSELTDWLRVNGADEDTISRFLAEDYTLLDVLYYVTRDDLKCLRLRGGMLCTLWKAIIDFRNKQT

[3] = molecular target: T3, MuSK(h) (Homo sapiens, UniProt O15146)
T3 construct: purchased Millipore KinaseProfiler
T3 sequence (O15146 24-869): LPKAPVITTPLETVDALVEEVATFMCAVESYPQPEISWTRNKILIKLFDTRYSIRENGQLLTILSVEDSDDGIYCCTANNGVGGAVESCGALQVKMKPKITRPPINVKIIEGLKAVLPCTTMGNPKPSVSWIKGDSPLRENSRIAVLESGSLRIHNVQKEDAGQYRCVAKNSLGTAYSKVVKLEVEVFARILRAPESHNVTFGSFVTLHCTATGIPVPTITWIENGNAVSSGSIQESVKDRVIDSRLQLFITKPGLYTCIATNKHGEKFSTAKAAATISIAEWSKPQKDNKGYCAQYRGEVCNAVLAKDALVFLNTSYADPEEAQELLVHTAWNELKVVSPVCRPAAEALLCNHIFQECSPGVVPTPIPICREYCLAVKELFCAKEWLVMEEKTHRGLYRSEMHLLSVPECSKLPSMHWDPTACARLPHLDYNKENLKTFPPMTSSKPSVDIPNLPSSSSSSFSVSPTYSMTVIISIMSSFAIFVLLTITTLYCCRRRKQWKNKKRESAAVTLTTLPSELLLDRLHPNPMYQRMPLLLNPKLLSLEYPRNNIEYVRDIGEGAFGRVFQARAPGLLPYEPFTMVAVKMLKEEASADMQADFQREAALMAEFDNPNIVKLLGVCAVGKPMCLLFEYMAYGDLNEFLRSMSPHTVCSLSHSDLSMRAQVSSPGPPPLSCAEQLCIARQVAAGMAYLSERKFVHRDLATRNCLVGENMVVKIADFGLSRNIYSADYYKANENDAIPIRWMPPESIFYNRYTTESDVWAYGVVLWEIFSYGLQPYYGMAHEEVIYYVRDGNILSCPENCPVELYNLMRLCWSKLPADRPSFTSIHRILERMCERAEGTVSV

[4] = molecular target: T4, Abl(h) (Homo sapiens, UniProt P00519)
T4 construct: purchased Millipore KinaseProfiler
T4 sequence (P00519 whole entry): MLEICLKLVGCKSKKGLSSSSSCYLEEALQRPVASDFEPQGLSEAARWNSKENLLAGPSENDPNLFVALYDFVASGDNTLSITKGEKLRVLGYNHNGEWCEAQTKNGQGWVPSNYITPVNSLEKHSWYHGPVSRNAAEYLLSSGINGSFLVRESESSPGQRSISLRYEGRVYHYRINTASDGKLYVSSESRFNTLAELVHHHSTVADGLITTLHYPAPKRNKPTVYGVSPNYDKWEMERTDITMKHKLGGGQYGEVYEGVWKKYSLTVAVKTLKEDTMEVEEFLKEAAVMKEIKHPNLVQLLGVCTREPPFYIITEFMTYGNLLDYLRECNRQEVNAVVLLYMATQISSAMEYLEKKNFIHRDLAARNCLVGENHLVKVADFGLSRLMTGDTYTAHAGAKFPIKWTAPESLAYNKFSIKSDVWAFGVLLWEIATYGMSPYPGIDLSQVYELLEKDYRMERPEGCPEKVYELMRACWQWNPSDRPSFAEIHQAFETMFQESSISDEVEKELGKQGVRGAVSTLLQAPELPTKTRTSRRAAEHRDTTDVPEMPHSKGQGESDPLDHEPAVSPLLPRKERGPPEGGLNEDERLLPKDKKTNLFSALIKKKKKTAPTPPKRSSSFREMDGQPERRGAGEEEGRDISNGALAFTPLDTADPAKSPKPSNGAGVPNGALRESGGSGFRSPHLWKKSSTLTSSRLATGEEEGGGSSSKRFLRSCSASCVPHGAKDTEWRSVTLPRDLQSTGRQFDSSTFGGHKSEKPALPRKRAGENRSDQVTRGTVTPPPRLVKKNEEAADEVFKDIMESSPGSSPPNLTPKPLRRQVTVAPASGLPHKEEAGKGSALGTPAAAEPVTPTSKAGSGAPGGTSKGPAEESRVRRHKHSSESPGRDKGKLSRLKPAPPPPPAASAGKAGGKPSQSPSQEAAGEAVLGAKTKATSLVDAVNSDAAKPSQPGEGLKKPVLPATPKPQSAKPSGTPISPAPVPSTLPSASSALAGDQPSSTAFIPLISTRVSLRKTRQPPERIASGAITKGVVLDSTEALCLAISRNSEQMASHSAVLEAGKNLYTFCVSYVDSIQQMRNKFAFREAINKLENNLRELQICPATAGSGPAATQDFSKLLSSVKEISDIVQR

T1 sequence (P51617 whole entry): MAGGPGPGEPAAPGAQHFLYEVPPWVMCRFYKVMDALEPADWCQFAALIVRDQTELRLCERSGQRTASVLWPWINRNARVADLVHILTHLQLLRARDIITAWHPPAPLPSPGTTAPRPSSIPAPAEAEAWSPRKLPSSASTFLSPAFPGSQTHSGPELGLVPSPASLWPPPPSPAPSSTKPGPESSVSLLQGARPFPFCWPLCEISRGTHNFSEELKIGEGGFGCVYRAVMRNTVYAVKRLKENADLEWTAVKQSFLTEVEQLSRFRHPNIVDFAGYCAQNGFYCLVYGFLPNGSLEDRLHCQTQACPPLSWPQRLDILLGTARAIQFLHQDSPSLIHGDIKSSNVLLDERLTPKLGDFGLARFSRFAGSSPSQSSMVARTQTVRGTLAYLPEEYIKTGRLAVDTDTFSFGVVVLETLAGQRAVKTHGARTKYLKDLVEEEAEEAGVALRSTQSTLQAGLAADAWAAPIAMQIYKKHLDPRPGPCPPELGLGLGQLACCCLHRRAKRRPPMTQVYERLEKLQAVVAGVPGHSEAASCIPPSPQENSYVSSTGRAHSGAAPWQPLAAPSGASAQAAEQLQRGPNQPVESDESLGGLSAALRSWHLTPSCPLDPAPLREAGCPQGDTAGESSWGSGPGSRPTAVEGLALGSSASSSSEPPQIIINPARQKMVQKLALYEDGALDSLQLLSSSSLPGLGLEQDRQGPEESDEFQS

Row | SMILES | inhibition at 0.5 µM [1] [%] | inhibition at 10 µM [1] [%] | inhibition at 0.5 µM [2] [%] | inhibition at 10 µM [2] [%] | inhibition at 0.5 µM [3] [%] | inhibition at 10 µM [3] [%] | inhibition at 0.5 µM [4] [%] | inhibition at 10 µM [4] [%] | inhibition at 0.5 µM ([1]; 0.5 µM, read-out: % Inhibition) [%] | inhibition at 10 µM ([1]; 10 µM, read-out: % Inhibition) [%] | inhibition at 0.5 µM ([2]; 0.5 µM, read-out: % Inhibition) [%] | inhibition at 10 µM ([2]; 10 µM, read-out: % Inhibition) [%] | inhibition at 0.5 µM ([3]; 0.5 µM, read-out: % Inhibition) [%] | inhibition at 10 µM ([3]; 10 µM, read-out: % Inhibition) [%] | inhibition at 0.5 µM ([4]; 0.5 µM, read-out: % Inhibition) [%] | inhibition at 10 µM ([4]; 10 µM, read-out: % Inhibition) [%]
1 | Cn1ncc(Cl)c1-c1cc(C(=O)N[C@H](CN)Cc2cccc(F)c2)sc1Cl [GSK2110183] | -5 | 3 | -2 | 3 | -25 | -20 | 8 | 4 | – | – | – | – | – | – | – | –
2 | Cn1ncc(Cl)c1-c1cc(C(=O)N[C@H](CN)Cc2ccc(F)c(F)c2)oc1Cl [GSK2141795] | – | – | – | – | – | – | – | – | -19 | -4 | -21 | -14 | -11 | -2 | 12 | 13
